Reference: patent US20170369475A1, “Flibanserin Hydrate” (Sandoz AG, priority 2016, published 2017)
Entries after “also recorded” stand apart in the source; their conditions may differ.

Assay: Gravimetric moisture sorption (GMS)
Assay type: physicochemical
Settings: 25±0.1° C.
Procedure: Moisture sorption isotherms were recorded with an SPSx-1 μ moisture sorption analyzer (ProUmid, Ulm). The measurement cycle was started at ambient relative humidity (RH) of 30%. RH was then decreased to 5% in 5% steps, followed by a further decrease to 3% and to 0%. […] Finally, RH was increased to ambient relative humidity of 30% in 5% steps.
The time per step was set to a minimum of 2 hours and a maximum of 6 hours. If an equilibrium condition with a constant mass of ±0.01% within 1 hour was reached before the maximum time for all examined samples the sequential humidity step was applied before the maximum time of 6 hours. If no equilibrium was achieved the consecutive humidity step was applied after the maximum time of 6 hours. The temperature was 25±0.1° C.
Therefore, flibanserin hydrate of the present invention can be assigned as being non-hygroscopic.

SMILES: O=c1[nH]c2ccccc2n1CCN1CCN(c2cccc(C(F)(F)F)c2)CC1 [flibanserin hydrate]
- hysteresis between sorption and desorption isotherms (GMS, 0 to 95% RH): no significant hysteresis
- hygroscopicity / water uptake or loss (in words) (GMS, 0 to 95% RH, hydrate): neither significant water uptake nor loss; also recorded: non-hygroscopic
- physical form after the GMS experiment (PXRD) (after sorption/desorption cycle 0-95-0% RH): same PXRD
- mass difference between 0 and 95% RH (equilibrium mass change, GMS) (sorption/desorption cycle 0-95% RH): 0.2 weight %
